Test results: article PMC7127027 (Bioorganic & Medicinal Chemistry Letters, 2017)

Test system: Hela cells RCB 0007
Conditions: human

O=C(/C=C/c1ccccc1)N[C@@H](c1ccccc1)[C@@H](OC(=O)c1ccccc1)C(=O)NC1CCCCC1 [Compound 4, (2R,3S)-Cyclohexyl 3-(N-cinnamoyl)amino-3-phenyl-2-benzoyloxypropanamide]
cell death ratio: less than 10%
